Measured values from patent US12486218B2, “Compounds advantageous in the treatment of central nervous system diseases and disorders” (AurimMed Pharma, Inc., priority 2008, dated 2025).

Legend:
SMN2 promoter = SMN2 promoter β-lactamase reporter assay in NSC34 motor neuron-like cells; type: cell-based; conditions: for SMN2 promoter activity: treatment for 19 hours at a concentration of 1 μM; for Promoter (SMN2 promoter test, summary YES/NO): Table 13 summary
Experimental: FIG. 30 illustrates a screen for SMN2 expression of a number of compounds described herein.
SMN2 promoter activity was measured using NSC34 motor neuron-like cells stably transfected with a β-lactamase (BLA) reporter gene under the control of a 3.4-kilobase fragment of the SMN2 promoter. D156844 was used as a positive control for this assay.

[1] = system: type II SMA fibroblasts (GM03813); assay: SMN protein localization, gem counting in type II SMA fibroblasts; type: cell-based; conditions: 100 nM-10 μM, 5 days
Experimental: To validate the SMN2 promoter and exon 7 screens, the effects of compounds H, H (acid form), AY, F, BX, and BY were evaluated on the basis of expression and localization of SMN protein in type II SMA fibroblasts (GM03813). In a normal cell, SMN protein localized within the nucleus to discreet foci known as gems. In SMN-deficient SMA cells, the number of gems is greatly diminished. Although the function of gems is unknown, it is believed that they are somehow involved in the snRNP assembly function of SMN. Gem counting can, therefore, be considered an assay for SMN function.
GM03813 fibroblasts were treated with different doses (100 nM-10 μM) of compounds H, H (acid form), AY, F, BX, and BY for 5 days. SMN immunostaining was then completed on these cells and the number of gems was counted in 100 randomly-selected nuclei. […] In fact, the gem counts at the highest dose of compound H approach those observed for carrier fibroblasts (GM03814). When compared against treatment with 1 μM D157495—a D156844 derivative, all of the compounds tested performed as well as or, even better than D157495.

rats [2] = assay: Pilocarpine-induced Status Epilepticus in Rats (prevention; intervention @ 30 min); conditions: Rattus norvegicus
Experimental: The animal testing was performed using the protocols developed in the Anticonvulsant Screening Program (ASP) at the National Institute of Neurological Disorders and Stroke (NINDS), National Institutes of Health (NIH).

mice [3] = assay: 6 Hz (minimal clonic seizure) model, mice i.p.; type: in vivo; conditions: for 6 Hz (32 mA), fraction of animals: mice i.p.; for activity in the 6 Hz (minimal clonic seizure) model: mice, at 100 mg/kg
mice [4] = assay: Maximal Electroshock Seizure (MES) test, mice i.p.; type: in vivo; conditions: for MES, fraction of animals: mice i.p.; for activity in the MES test: mice
mice [5] = assay: Minimal motor impairment (MID50), mice i.p.; conditions: mice i.p.; 100 mg/kg @ 0.5 hr
Experimental: The animal testing was performed according to methods known in the relevant art.

[6] = system: inclusion of exon 7 in SMN2 mRNAs; assay: Exon 7 inclusion BLA reporter assay in NSC34 cell line; type: cell-based
Text: To measure changes in the inclusion of exon 7 in SMN2 mRNAs, another NSC34 cell line was used that stably transfected with a reporter construct which expresses BLA when exon 7 is included in the SMN2 minigene mRNAs. 5-(N-ethyl-N-isopropyl)-amiloride (EIPA) was used as a positive control for this assay. Data for tis assay is illustrated in FIG. 30.

mice [7] = assay: Corneal kindled mouse model; type: in vivo; conditions: mice i.p.; 100 mg/kg @ 0.25 hr
mice [8] = assay: Subcutaneous Metrazol Seizure threshold (s.c. MET) test, mice i.p.; type: in vivo; conditions: for activity in the s.c. MET test: mice
rats [9] = assay: MES test, rats p.o.; type: in vivo; conditions: at 30 mg/kg
[10] = system: rat dopaminergic N27 cells; assay: N27 protection assay against oxidative stress (H2O2 or MPP+; MTT and LDH); type: cell-based; conditions: drug 24 hours before 200 μM H2O2 or 640 μM MPP+
Text: FIGS. 20A-25D data are shown illustrating neuroprotective and neuroregenerative effects observed in rat dopaminergic N27 cells. Rat dopaminergic N27 cells are commonly used in in vitro and in vivo model systems for studying Parkinson's disease. Parkinson's disease is a neurodegenerative disorder of the central nervous system that affects more than 6 million people worldwide. The motor symptoms of Parkinson's disease result from the death of dopamine generating cells in the substantia nigra, a region of the midbrain.
The N27 rat dopaminergic neuron cell line was harvested from E12 rat mesencephalic tissue and was transfected with SV40 to immortalize the cell line. The N27 cell line, when injected into the striata of 6-hydroxydopamine-lesioned rats (an animal model of PD) caused a time-dependent improvement in neurological deficits. This immortalized cell line has been carefully characterized in studies of dopamine biosynthesis, neurotoxicity and used as a dopaminergic neuron model studies.
The N27 in vitro Parkinson's disease model included a test of cell viability and cell toxicity in response to exposure to oxidative stress (e.g., either 200 μM H2O2 or 640 μM MPP+).
Cell viability was tested using the MTT assay. The MTT assay is a colorimetric analysis based on the activities of mitochondrial NAD(P)H-dependent cellular oxidoreductase enzymes. These enzymes are capable of reducing the tetrazolium dye, MTT [3-(4,5-dimethylthiazol-2-yl)-2,5-diphenyltetrazolium] bromide, to an insoluble formazan (purple). […] More viable cells equal more accumulation of the insoluble formazan dye.
Cell toxicity was tested using the […] (LDH) assay. Cells that are stressed secrete LDH. In general, the more cells are stressed, the LDH they secrete into their media. The LDH assay is a reliable colorimetric assay to measure quantitatively the […] (LDH) that is released into the cell culture media from damaged cells as a biomarker for cytotoxicity and cytolysis.
FIGS. 20A-25D present data from two types of assays: protection and recovery assays. In the protection assays, the drug candidate was applied to the cells at various concentrations for 24 hours, followed by the exposure to oxidative stress (either 200 μM H2O2 or 640 μM MPP+) for measuring neuroprotective effect. H2O2 provides a broad measure of oxidative stress, while MPP+ gives a more specific oxidative stress to dopaminergic neurons.
The protection assay results are shown in panels A-C of FIGS. 20-25 In the recovery assays, the cells were first damaged by exposure to H2O2 and then various concentrations of the drug were applied to the cells. The results for the recovery assays are shown the D panels of FIGS. 20-25.

[11] = read-out: Prevention, Protection
[12] = NSC34 exon 7 BLA reporter cells

Row | SMILES | SMN2 promoter activity (SMN2 promoter) | gem counts (SMN immunostaining, 100 nuclei) [1] | activity in the 6 Hz (minimal clonic seizure) model (mice [3]) | Promoter (SMN2 promoter test, summary YES/NO) (SMN2 promoter) | activity in the MES test (mice [4]; at 100 mg/kg) | responders at 65 mg/kg (rats [2]; [11]) [%] | Corneal Kindled, Average seizure score (mice [7]) | Corneal Kindled, fraction of animals (mice [7]) | activity in the MES test (rats [9]) | further results
1 | CC(CC(N)=O)c1ccc(N2CCOCC2)cc1 (centres unmarked) [Compound AY, 3-(4-Morpholin-4-yl-phenyl)-butyramide] | increased SMN2 promoter activity | increase gem counts in a dose-dependent manner | activity |  |  |  |  |  |  | responders at 600 mg/kg (rats [2]; [11]): 38%; 6 Hz (32 mA), fraction of animals (mice [3]; 100 mg/kg @ 1.0 hr): 1/4
2 | CC(CC(N)=O)c1ccccc1OC(F)(F)F (centres unmarked) [BU, 3-[2-(trifluoromethoxy)-phenyl]butyramide] | increased SMN2 promoter activity |  |  | YES | activity | 100 |  |  |  | SMN2 promoter assay, particularly strong hits (SMN2 promoter; NSC34 BLA reporter cells): Particularly strong hits; MES, fraction of animals (mice [4]; 100 mg/kg @ 0.5 hr): 3/3; MES, fraction of animals (mice [4]; 100 mg/kg @ 4.0 hr): 2/3; responders at 127 mg/kg (rats [2]; 0.5 h, read-out: Intervention @ 30 min, Protection): 50%; MID50, fraction of animals (mice [5]): 5/8 @; effect on the inclusion of exon 7 in SMN2 transcripts [6, 12]: positive effect on the inclusion of exon 7; exon 7 test, particularly strong hits [6, 12]: Particularly strong hits; Exon 7 inclusion (summary YES/NO) ([6]; Table 13 summary): YES
3 | CC(CC(=O)O)c1ccc(OC(F)(F)F)cc1 (racemic) [H (acid form)] |  | increase gem counts in a dose-dependent manner |  |  |  |  |  |  |  | relative potency in increasing gem counts [1]: most potent
4 | NC(=O)CC(c1ccc(F)cc1)C1CC1 (centres unmarked) [Y, 3-Cyclopropyl-3-(4-fluoro-phenyl)propionamide] | increased SMN2 promoter activity |  | activity |  | activity | 88 | 0: (0, 0, | 4/4 @ |  | s.c. MET, fraction of animals (mice [8]; mice i.p., 100 mg/kg @ 0.5 hr): 2/5 @0.5 hrs,; activity in the s.c. MET test (mice [8]; at 100 mg/kg): activity
5 | NC(=O)CC(c1ccc(Cl)cc1)C1CC1 (centres unmarked) [X, 3-(4-Chloro-phenyl)-3-cyclopropyl-propionamide] | increased SMN2 promoter activity |  |  | YES | activity |  | score is 3: | 2/4 @ | activity | 6 Hz (32 mA), fraction of animals (mice [3]; 75 mg/kg @ 1.0 hr): 4/4; 6 Hz (32 mA), fraction of animals (mice [3]; 75 mg/kg @ 2.0 hr): 2/4; 6 Hz (32 mA), fraction of animals (mice [3]; 75 mg/kg @ 4.0 hr): 1/4 @; activity in the s.c. MET test (mice [8]; at 300 mg/kg): activity; neuroprotective effect against H2O2 and MPP+ oxidative stresses (MTT and LDH assays) [10]: statistically significant, dose-dependent neuroprotection
6 | NC(=O)[C@@H]1C[C@H]1c1ccccc1 (relative stereo) [Compound P, trans-2-phenylcyclopropane-1-carboxamide] |  |  |  |  |  |  |  |  | activity | activity in the MES test (mice [4]; at 300 mg/kg): activity; responders at 450 mg/kg (rats [2]; [11]): 100%
